# Laboratory results: patent US6369109B1, “Betulinic acid and derivatives thereof useful for the treatment of neuroectodermal tumor” (Deutsches Krebsforschungszentrum Stiftung des Offentlichen …, priority 1998, dated 2002)
# “Also recorded” adds a separate entry of the source. Residues, ends and D or L forms follow the SMILES beside them. *: point of attachment. Cbz = O=C(OCc1ccccc1)*; CH2F = FC*
# Columns and labels:
# [1] = test system: SH-EP neuroblastoma cells; assay: Specific apoptosis, FACS analysis of propidium iodide-stained nuclei; format: cell-based, human; conditions: for effect of CD95 blockage by F(ab′)2 anti-APO-1 on drug-induced apoptosis: 10 μg/ml antibody fragments 1 h before drug, 10 μg/ml betulinic acid, 50 μg/ml VP-16, 10 μg/ml cisplatinum, 0.5 μg/ml doxorubicin, 72 h, FIG. 3B
# Experimental: Quantification of DNA fragmentation was performed by FACS analysis of propidium iodide stained nuclei as described in Nicoletti et al, 1991, J. Immunol. Methods. 139: 271-279. Cells were analyzed for DNA content by flow. cytometry (FACScan, Becton Dickinson, Heidelberg, Germany) using CELLQuest software. Early apoptotic changes were identified by staining with biotinylated annexin V (Bender Med Systems, Vienna, Austria) following the manufacturer's instructions. Annexin V binds to exposed phosphatidylserine on the surface of apoptotic cells. Koopman et al, 1994, Blood. 84:1415-1420. Cells were analyzed by flow cytometry (FAC-Scan. Becton Dickinson) using CELLQuest software.
# Cells were treated with 10 μg/ml betulinic acid for 72 h. Apoptosis was assessed by FACS analysis of propidium iodide-stained nuclei. Percentage of specific apoptosis was calculated as follows: experimental apoptosis (%) −spontaneous apoptosis in medium (%)/[100%−spontaneous apoptosis in medium (%)]×100%. […]
# Cells were incubated for indicated times with doxorubicin, betulinic acid or anti-APO-1 and harvested by trypsinization using 0.05% trypsin and 0.02% EDTA without Ca^2+and Mg^2+(Life Technologies, Inc.). Quantification of DNA fragmentation was performed by FACS analysis of propidium iodide stained nuclei as previously described in Nicoletti et al., J. ImmunoL Methods 139:271-279, using CELLQuest software (Becton Dickinson, Heidelberg, Germany).
# (§1) SHEP cells transfected with Bcl-2 or BCl-XL or a neomycin resistance vector only (Neo) were treated with 0.5 μg/ml Doxorubicin or 10 μg/ml Betulinic acid for 48 h (A) or 24 h (B and C). Cells transfected with a neomycin resistance vector only (Neo) were treated in the presence or absence of 50 μm BA or 60 μm zVAD-fmk. Nuclear apoptosis was determined by FACS analysis or propidium iodide-stained DNA content in intact cells (A) or in a CFS incubating isolated nuclei with mitochondria from cells treated with Doxo or betulinic acid (C). ΔΨm was determined by staining cells with the potential-sensitive fluorochrome DiOC6(3) (B).
# [2] = test system: SH-EP neuroblastoma cells; assay: Mitochondrial potential (DiOC6(3)), ROS (HE) and lipid peroxidation (NAO) by flow cytometry; format: cell-based, human; conditions: FIG. 12B
# Experimental: The cationic lipophilic fluorochrome DiOC6(3)(460 ng/ml, Molecular Probes, Eugene, Oreg.) was used to measure the Δ¥m. HE(126 ng/ml. Molecular probes) was used to determine ROS generation, and NAO (94 ng/ml, Molecular Probes) was used to determine lipid peroxidation. Kroemer et al, 1997, Immunol. Today. 18:44-51. Cells were incubated for 12 min at 37° C. in the presence of the fluorochromes, washed in PBS/1% FCS, and immediately analyzed by flow cytometry (FACScan, Becton Dickinson). DiOC6(3) and NAO fluorescence were recorded in fluorescence 1; He fluorescence was assessed in fluorescence 3. The percentage of cells with low mitochondrial potential or enhanced ROS production was calculated in comparison to untreated control cells.
# SH-EP neuroblastoma cells were treated with 10 μg/ml betulinic acid for the indicated times. Cells were stained with the fluorochrome DiOC6(3) to determine ΔΨm and with HE to determine ROS generation and analyzed by flow cytometry. Fold increase in cells with low ΔΨm [DiOC6(3)^low] or with enhanced ROS production (HE+) is shown.
# SH-EP neuroblastoma cells treated with 10 μg/ml […] for 24 h (heavy line) or control cells (thin line) were strained with NAO to assess oxidized cardiolipin and analyzed by flow cytomety.
# For determination of mitochondrial membrane potential, cells (5×10^5/ml) were incubated with 3,3′-dihexyloxacarbocyanide iodide (DiOC6(3), 40 nM, Molecular Probes, Inc., Eugene, Oreg.) for 15 min at 37° C. and analyzed on a flow cytometer (FACScan) (Zamzarni et al., 1996 J. Exp. Med. 183:1533-44). For cell sorting, cells were stained with DiOC6(3) and sorted into DiOC6(3)^high and DiOC6(3)^low cells on a cytofluorometer (FACS Vantage, Becton Dickinson). As a control, cells were treated with the uncoupling agent carbonyl cyanide m-chlorophenylhydrazone (mCICCP, 200 μM, Sigma).
# as §1
SMILES,effect of CD95 blockage by F(ab′)2 anti-APO-1 on drug-induced apoptosis [1],"effect of inhibitor on drug-triggered nuclear fragmentation ([1]; 50 μM bongkrekic acid, doxorubicin or betulinic acid, FIG. 12A)","effect of inhibitor on drug-triggered ΔΨm loss ([2]; 50 μM bongkrekic acid, doxorubicin or betulinic acid)","nuclear fragmentation in intact SHEP cells ([1]; 0.5 μg/ml doxorubicin or 10 μg/ml betulinic acid, 48 h, FIG. 12A)","loss of ΔΨm in intact SHEP cells ([2]; 0.5 μg/ml doxorubicin or 10 μg/ml betulinic acid, 24 h)","effect of inhibitor on betulinic acid-induced apoptosis ([1]; 60 μM zVAD-fmk, 10 μg/ml betulinic acid 72 h, FIG. 2D)","effect of inhibitor on betulinic acid-induced nuclear fragmentation ([1]; 60 μM zVAD-fmk, FIG. 12A)","effect of inhibitor on doxorubicin-induced nuclear fragmentation ([1]; 60 μM zVAD-fmk, FIG. 12A)",effect of inhibitor on betulinic acid-induced ΔΨm dissipation ([2]; 60 μM zVAD-fmk),effect of inhibitor on doxorubicin-induced loss of ΔΨm ([2]; 60 μM zVAD-fmk)
CO[C@H](C/C=C\C=C\CC/C=C/C[C@H](C)/C=C/C(=C\C(=O)O)CC(=O)O)/C(C)=C\C=C(/C)C(=O)O [bongkrekic acid],did not inhibit,inhibited drug-triggered nuclear fragmentation and ΔΨm loss,inhibited drug-triggered nuclear fragmentation and ΔΨm loss,,,,,,,
COc1cccc2c1C(=O)c1c(O)c3c(c(O)c1C2=O)C[C@@](O)(C(=O)CO)C[C@@H]3O[C@H]1C[C@H](N)[C@H](O)[C@H](C)O1 [doxorubicin],significantly blocked; also recorded: markedly reduced,,,induced loss of ΔΨm and nuclear fragmentation,induced loss of ΔΨm and nuclear fragmentation,,,,,
"COC(=O)C[C@H](NC(=O)[C@H](C)NC(=O)[C@@H](NC(=O)OCc1ccccc1)C(C)C)C(=O)CF [zVAD-fmk, benzyloxycarbonyl-Val-Ala-Asp-Fluoromethylketone] (Cbz-Val-Ala-Asp(OMe)-CH2F)",,,,,,almost completely abrogated apoptosis,only affected the betulinic acid-induced nuclear fragmentation,both inhibited,had no effect,both inhibited
